Source: ChEMBL document CHEMBL5113460, “Discovery of dual inhibitors of topoisomerase I and Cyclooxygenase-2 for colon cancer therapy” (Eur J Med Chem, 2022)
Activity calls are given as the source filed them. The calls are words filed in the database; no cut-off is given here.

Columns and labels:
HT-29 [1] = assay: Antitumor activity against human HT-29 cells assessed as inhibition of cell proliferation incubated for 72 hrs by MTT assay; assay type: functional, cell-based; details: HT-29, 72 h
RKO [2] = assay: Antitumor activity against human RKO cells assessed as inhibition of cell proliferation incubated for 72 hrs by MTT assay; assay type: functional, cell-based
LoVo = assay: Antitumor activity against human LoVo cells assessed as inhibition of cell proliferation incubated for 72 hrs by MTT assay; assay type: functional, cell-based
HCT-116 = assay: Antitumor activity against human HCT-116 cells assessed as inhibition of cell proliferation incubated for 72 hrs by MTT assay; assay type: functional, cell-based; details: HCT-116, 72 h
[3] = molecular target: T1, DNA topoisomerase 1 (Homo sapiens) (UniProt P11387); assay: Poison activity at topoisomerase 1 (unknown origin) assessed as s increase in nicked DNA formation at 1 mM using supercoiled plasmid DNA as substrate at 200 to 400 uM incubated for 35 mins by agarose gel electrophoresis
T1 sequence (whole entry): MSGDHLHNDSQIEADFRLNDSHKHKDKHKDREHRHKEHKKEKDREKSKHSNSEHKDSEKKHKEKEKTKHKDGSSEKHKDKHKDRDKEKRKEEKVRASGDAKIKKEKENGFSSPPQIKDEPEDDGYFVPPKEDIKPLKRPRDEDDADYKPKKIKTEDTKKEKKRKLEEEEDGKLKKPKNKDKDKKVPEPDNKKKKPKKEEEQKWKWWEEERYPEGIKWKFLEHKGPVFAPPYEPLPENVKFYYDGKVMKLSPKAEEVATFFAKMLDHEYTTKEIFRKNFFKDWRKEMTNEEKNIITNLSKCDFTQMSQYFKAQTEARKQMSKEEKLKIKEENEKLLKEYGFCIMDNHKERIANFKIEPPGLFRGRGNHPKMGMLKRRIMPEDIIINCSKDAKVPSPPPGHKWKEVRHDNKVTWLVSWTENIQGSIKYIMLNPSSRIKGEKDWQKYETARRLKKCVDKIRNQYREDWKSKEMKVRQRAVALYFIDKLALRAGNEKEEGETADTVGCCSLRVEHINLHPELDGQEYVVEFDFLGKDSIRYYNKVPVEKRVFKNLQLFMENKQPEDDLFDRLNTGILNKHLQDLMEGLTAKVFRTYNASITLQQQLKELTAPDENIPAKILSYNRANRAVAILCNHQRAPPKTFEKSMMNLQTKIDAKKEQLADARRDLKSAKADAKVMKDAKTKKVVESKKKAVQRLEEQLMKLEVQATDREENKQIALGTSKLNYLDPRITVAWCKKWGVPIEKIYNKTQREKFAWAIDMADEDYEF

HT-29 [4] = assay: Induction of apoptosis in human HT-29 cells assessed as early apoptotic cells at 2 uM incubated for 24 hr by Annexin-V-FITC/PI staining based flow cytometry (Rvb=6.25%); assay type: functional
HT-29 [5] = assay: Induction of apoptosis in human HT-29 cells assessed as early apoptotic cells at 4 uM incubated for 24 hr by Annexin-V-FITC/PI staining based flow cytometry (Rvb=6.25%); assay type: functional
HT-29 [6] = assay: Induction of apoptosis in human HT-29 cells assessed as late apoptotic cells at 4 uM incubated for 24 hr by Annexin-V-FITC/PI staining based flow cytometry (Rvb=8.60%); assay type: functional
HT-29 [7] = assay: Induction of apoptosis in human HT-29 cells assessed as necrotic cells at 8 uM incubated for 24 hr by Annexin-V-FITC/PI staining based flow cytometry (Rvb=1.67%); assay type: functional
HT-29 [8] = assay: Induction of apoptosis in human HT-29 cells assessed as increase in intracellular ROS level at 2 to 8 uM for 24 hrs by DCFH-DA staining-based flow cytometric analysis; assay type: functional, cell-based; details: dose 2-8 µM
HT-29 [9] = assay: Induction of apoptosis in human HT-29 cells assessed as increase in Bax protein level at 2 to 8 uM incubated for 24 hrs by western blot analysis; assay type: functional, cell-based; details: dose 2-8 µM
HT-29 [10] = assay: Induction of apoptosis in human HT-29 cells assessed as increase in cytochrome c protein level at 2 to 8 uM incubated for 24 hrs by western blot analysis; assay type: functional, cell-based; details: dose 2-8 µM
HT-29 [11] = assay: Induction of apoptosis in human HT-29 cells assessed as increase in cleaved caspase-9 protein level at 2 to 8 uM incubated for 24 hrs by western blot analysis; assay type: functional, cell-based; details: dose 2-8 µM
RKO [12] = assay: Induction of apoptosis in human RKO cells assessed as decrease in Bcl-2 protein level at 3 to 9 uM incubated for 24 hrs by western blot analysis; assay type: functional, cell-based; details: dose 3-9 µM
RKO [13] = assay: Inhibition of NF-kappaB signalling pathway in human RKO cells assessed as decrease in phosphorylated IkappaB level at 3 to 9 uM incubated for 24 hrs by Western blot analysis; assay type: cell-based; details: dose 3-9 µM
HT-29 [14] = assay: Antitumor activity against human HT-29 cells xenografted in BALB/c mouse assessed as inhibition of tumor growth at 30 mg/kg, ip bid and measured after 14 days by vernier caliper method; assay type: functional; details: HT-29, 336 h, time 14 day, read-out: TGI
HT-29 [15] = assay: Antitumor activity against human HT-29 cells xenografted in BALB/c mouse assessed as tumor necrosis at 15 to 30 mg/kg, ip bid for 14 days by hematoxylin-eosin staining analysis; assay type: functional, organism-based; details: dose 15-30 mg/kg, time 14.0 day
HT-29 [16] = assay: Antitumor activity against human HT-29 cells xenografted in BALB/c mouse assessed as inhibition of tumor cell proliferation at 15 mg/kg, ip bid for 14 days by Ki67 staining based immunohistochemical analysis (Rvb= 16.61+/-1.05%); assay type: functional; set-up: scale not given: the % may be the effect or the level left; details: time 14 day
HT-29 [17] = assay: Antitumor activity against human HT-29 cells xenografted in BALB/c mouse assessed as inhibition of tumor microvessel density by measuring CD31-index at 15 mg/kg, ip bid for 14 days by immunohistochemical analysis; assay type: functional; details: time 14 day
[18] = molecular target: Prostaglandin G/H synthase 2 (Homo sapiens) (UniProt P35354); assay: Inhibition of COX-2 (unknown origin) at 3 uM
Chain of Prostaglandin G/H synthase 2 (Homo sapiens) (P35354 whole entry, looked up): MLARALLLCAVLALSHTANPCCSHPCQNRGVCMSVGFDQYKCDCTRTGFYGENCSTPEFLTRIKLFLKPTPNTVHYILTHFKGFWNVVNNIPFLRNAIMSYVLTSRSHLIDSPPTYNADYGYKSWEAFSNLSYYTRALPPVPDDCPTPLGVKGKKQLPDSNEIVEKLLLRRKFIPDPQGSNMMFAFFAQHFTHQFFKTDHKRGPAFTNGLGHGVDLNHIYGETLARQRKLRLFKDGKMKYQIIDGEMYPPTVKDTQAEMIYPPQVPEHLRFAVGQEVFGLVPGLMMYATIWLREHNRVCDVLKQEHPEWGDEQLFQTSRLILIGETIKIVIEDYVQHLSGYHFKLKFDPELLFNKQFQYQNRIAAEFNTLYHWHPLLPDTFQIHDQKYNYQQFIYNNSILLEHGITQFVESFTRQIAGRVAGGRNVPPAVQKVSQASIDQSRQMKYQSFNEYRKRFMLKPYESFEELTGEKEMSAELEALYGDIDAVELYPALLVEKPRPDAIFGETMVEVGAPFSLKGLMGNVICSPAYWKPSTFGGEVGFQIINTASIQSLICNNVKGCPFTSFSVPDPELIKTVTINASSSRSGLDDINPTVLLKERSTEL

[19] = molecular target: Prostaglandin G/H synthase 2 (Homo sapiens) (UniProt P35354); assay: Inhibition of COX-2 (unknown origin) at 30 uM

- IC50 (HT-29 [1]): 1.48 µM
- IC50 (LoVo): 4.89 µM
- IC50 (HCT-116): 8.42 µM
- inhibition [18]: 74.2%
- inhibition [19]: 100%
Structure (SMILES): Cc1c(Cl)cccc1Nc1ccccc1C(=O)Nc1ccc(N2CCNCC2)cc1
- IC50 (RKO [2]): 2.06 µM
- Activity [3]: Active
- Activity (HT-29 [4]): 4.85%
- Activity (HT-29 [5]): 4.95%
- Activity (HT-29 [6]): 14%
- Activity (HT-29 [7]): 1.05%
- Activity (HT-29 [8]): Active
- Activity (HT-29 [9]): Active
- Activity (HT-29 [10]): Active
- Activity (HT-29 [11]): Active
- Activity (RKO [12]): Active
- inhibition (RKO [13]): Active
- inhibition in vivo at 30 mg/kg (HT-29 [14]): 57.9%
- Activity (HT-29 [15]): Active
- Activity (HT-29 [16]): 3.74%
- Inhibition_index (HT-29 [17]): 10.67
